Source: PubChem BioAssay (NCI)
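Dose response: 5 concentrations. Exposure: 48 h. Format: 96-well plates. Endpoint: linear interpolation; highest concentration if not reached. The concentration for 50% growth inhibition is given as GI50. Definition used: TGI = concentration required for complete inhibition of growth.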

Key:
Experiment in all cases: NCI-60 cell line screen, 48 h; in the data active = GI50 below about 0.43 µM; inactive = the rest
786-0 renal = test system: 786-0 renal
A498 renal = test system: A498 renal
A549 NSCLC = test system: A549 NSCLC
ACHN renal = test system: ACHN renal
BT-549 breast = test system: BT-549 breast
CCRF-CEM leukemia = test system: CCRF-CEM leukemia
COLO 205 colon = test system: COLO 205 colon
DU-145 prostate = test system: DU-145 prostate
EKVX NSCLC = test system: EKVX NSCLC
HCC-2998 colon = test system: HCC-2998 colon
HCT-116 colon = test system: HCT-116 colon
HCT-15 colon = test system: HCT-15 colon
HL-60(TB) leukemia = test system: HL-60(TB) leukemia
HOP-62 NSCLC = test system: HOP-62 NSCLC
HOP-92 NSCLC = test system: HOP-92 NSCLC
HS 578T breast = test system: HS 578T breast
HT29 colon = test system: HT29 colon
IGROV1 ovarian = test system: IGROV1 ovarian
K-562 leukemia = test system: K-562 leukemia
KM12 colon = test system: KM12 colon
LOX IMVI melanoma = test system: LOX IMVI melanoma
M14 melanoma = test system: M14 melanoma
MALME-3M melanoma = test system: MALME-3M melanoma
MCF7 breast = test system: MCF7 breast
MDA-MB-231 breast = test system: MDA-MB-231 breast
MDA-MB-435 = test system: MDA-MB-435
MOLT-4 leukemia = test system: MOLT-4 leukemia
NCI-H226 lung = test system: NCI-H226 lung
NCI-H23 lung = test system: NCI-H23 lung
NCI-H460 lung = test system: NCI-H460 lung
NCI-H522 lung = test system: NCI-H522 lung
NCI/ADR-RES ovarian = test system: NCI/ADR-RES ovarian
OVCAR-3 ovarian = test system: OVCAR-3 ovarian
OVCAR-4 ovarian = test system: OVCAR-4 ovarian
OVCAR-8 ovarian = test system: OVCAR-8 ovarian
PC-3 prostate = test system: PC-3 prostate
RPMI-8226 leukemia = test system: RPMI-8226 leukemia
RXF 393 renal = test system: RXF 393 renal
SF-268 CNS = test system: SF-268 CNS
SF-295 CNS = test system: SF-295 CNS
SF-539 CNS = test system: SF-539 CNS
SK-MEL-28 melanoma = test system: SK-MEL-28 melanoma
SK-OV-3 ovarian = test system: SK-OV-3 ovarian
SN12C renal = test system: SN12C renal
SNB-75 CNS = test system: SNB-75 CNS
SR leukemia = test system: SR leukemia
SW-620 colon = test system: SW-620 colon
T-47D breast = test system: T-47D breast
TK-10 renal = test system: TK-10 renal
U251 CNS = test system: U251 CNS
UACC-257 melanoma = test system: UACC-257 melanoma
UACC-62 melanoma = test system: UACC-62 melanoma
CAKI-1 renal = test system: CAKI-1 renal
OVCAR-5 ovarian = test system: OVCAR-5 ovarian
SK-MEL-2 melanoma = test system: SK-MEL-2 melanoma
SK-MEL-5 melanoma = test system: SK-MEL-5 melanoma
SNB-19 CNS = test system: SNB-19 CNS
UO-31 renal = test system: UO-31 renal

[N-]=[N+]=Nc1cccc(-c2n[nH]c(Cl)cc2=O)c1
> 100 µM: TGI (786-0 renal) | TGI (A498 renal) | TGI (A549 NSCLC) | TGI (ACHN renal) | TGI (BT-549 breast) | TGI (CCRF-CEM leukemia) | TGI (COLO 205 colon) | TGI (DU-145 prostate) | TGI (EKVX NSCLC) | TGI (HCC-2998 colon) | TGI (HCT-116 colon) | TGI (HCT-15 colon) | TGI (HL-60(TB) leukemia) | TGI (HOP-62 NSCLC) | TGI (HOP-92 NSCLC) | TGI (HS 578T breast) | TGI (HT29 colon) | TGI (IGROV1 ovarian) | TGI (K-562 leukemia) | TGI (KM12 colon) | TGI (LOX IMVI melanoma) | TGI (M14 melanoma) | TGI (MALME-3M melanoma) | TGI (MCF7 breast) | TGI (MDA-MB-231 breast) | TGI (MDA-MB-435) | TGI (MOLT-4 leukemia) | TGI (NCI-H226 lung) | TGI (NCI-H23 lung) | TGI (NCI-H460 lung) | TGI (NCI-H522 lung) | TGI (NCI/ADR-RES ovarian) | TGI (OVCAR-3 ovarian) | TGI (OVCAR-4 ovarian) | TGI (OVCAR-8 ovarian) | TGI (PC-3 prostate) | TGI (RPMI-8226 leukemia) | TGI (RXF 393 renal) | TGI (SF-268 CNS) | TGI (SF-295 CNS) | TGI (SF-539 CNS) | TGI (SK-MEL-28 melanoma) | TGI (SK-OV-3 ovarian) | TGI (SN12C renal) | TGI (SNB-75 CNS) | TGI (SR leukemia) | TGI (SW-620 colon) | TGI (T-47D breast) | TGI (TK-10 renal) | TGI (U251 CNS) | TGI (UACC-257 melanoma) | TGI (UACC-62 melanoma)

COc1cc2nccc(Oc3ccc(NC(=O)C4(C(=O)Nc5ccc(F)cc5)CC4)cc3)c2cc1OC(=O)c1ccc(N)cc1
1.39 µM: TGI (SNB-75 CNS)
5.16 µM: TGI (SK-MEL-28 melanoma)
4.91 µM: TGI (K-562 leukemia)
5.31 µM: TGI (LOX IMVI melanoma)
inactive: GI50 (786-0 renal) 1.81 µM | GI50 (A498 renal) 2.03 µM | GI50 (A549 NSCLC) 3.11 µM | GI50 (ACHN renal) 3.73 µM | GI50 (BT-549 breast) 2.88 µM | GI50 (CAKI-1 renal) 2.68 µM | GI50 (CCRF-CEM leukemia) 2.6 µM | GI50 (DU-145 prostate) 3.48 µM | GI50 (EKVX NSCLC) 5.31 µM | GI50 (HCC-2998 colon) 3.88 µM | GI50 (HCT-116 colon) 3.08 µM | GI50 (HCT-15 colon) 2.17 µM | GI50 (IGROV1 ovarian) 6.92 µM | GI50 (K-562 leukemia) 1.09 µM | GI50 (LOX IMVI melanoma) 1.92 µM | GI50 (M14 melanoma) 2.79 µM | GI50 (MALME-3M melanoma) 2.47 µM | GI50 (MCF7 breast) 1.72 µM | GI50 (MDA-MB-231 breast) 1.98 µM | GI50 (MDA-MB-435) 2.18 µM | GI50 (NCI-H226 lung) 3.11 µM | GI50 (NCI-H23 lung) 1.98 µM | GI50 (NCI-H460 lung) 3.49 µM | GI50 (NCI-H522 lung) 2.65 µM | GI50 (NCI/ADR-RES ovarian) 3.74 µM | GI50 (OVCAR-3 ovarian) 4.36 µM | GI50 (OVCAR-5 ovarian) 2.23 µM | GI50 (OVCAR-8 ovarian) 5.77 µM | GI50 (PC-3 prostate) 2.5 µM | GI50 (RPMI-8226 leukemia) 2.66 µM | GI50 (SF-268 CNS) 1.63 µM | GI50 (SK-MEL-2 melanoma) 2.38 µM | GI50 (SK-MEL-28 melanoma) 1.34 µM | GI50 (SK-MEL-5 melanoma) 4.46 µM | GI50 (SK-OV-3 ovarian) 2.95 µM | GI50 (SN12C renal) 1.39 µM | GI50 (SNB-19 CNS) 3.05 µM | GI50 (SR leukemia) 0.626 µM | GI50 (SW-620 colon) 2.92 µM | GI50 (T-47D breast) 2.92 µM | GI50 (TK-10 renal) 6.62 µM | GI50 (UACC-257 melanoma) 4.91 µM | GI50 (UACC-62 melanoma) 2.85 µM | GI50 (UO-31 renal) 1.58 µM
> 100 µM: TGI (A549 NSCLC) | TGI (ACHN renal) | TGI (BT-549 breast) | TGI (CAKI-1 renal) | TGI (CCRF-CEM leukemia) | TGI (DU-145 prostate) | TGI (EKVX NSCLC) | TGI (HCC-2998 colon) | TGI (HCT-116 colon) | TGI (HCT-15 colon) | TGI (IGROV1 ovarian) | TGI (KM12 colon) | TGI (M14 melanoma) | TGI (MALME-3M melanoma) | TGI (MCF7 breast) | TGI (MDA-MB-435) | TGI (NCI-H226 lung) | TGI (NCI-H23 lung) | TGI (NCI-H522 lung) | TGI (NCI/ADR-RES ovarian) | TGI (OVCAR-3 ovarian) | TGI (OVCAR-5 ovarian) | TGI (OVCAR-8 ovarian) | TGI (PC-3 prostate) | TGI (RPMI-8226 leukemia) | TGI (SF-268 CNS) | TGI (SK-MEL-5 melanoma) | TGI (SN12C renal) | TGI (SNB-19 CNS) | TGI (SR leukemia) | TGI (SW-620 colon) | TGI (T-47D breast) | TGI (TK-10 renal) | TGI (UACC-257 melanoma) | TGI (UACC-62 melanoma)
1.99 µM: TGI (RXF 393 renal)
8.05 µM: TGI (SK-OV-3 ovarian)
54.2 µM: TGI (NCI-H460 lung)
4.53 µM: TGI (A498 renal)
14.5 µM: TGI (SK-MEL-2 melanoma)
active: GI50 (HOP-92 NSCLC) 0.2 µM | GI50 (HS 578T breast) 0.29 µM | GI50 (KM12 colon) 0.0936 µM | GI50 (RXF 393 renal) 0.314 µM | GI50 (SF-295 CNS) 0.262 µM | GI50 (SF-539 CNS) 0.246 µM | GI50 (SNB-75 CNS) 0.199 µM
2.04 µM: TGI (SF-539 CNS)
6.53 µM: TGI (MDA-MB-231 breast)
2.07 µM: TGI (HS 578T breast)
6.58 µM: TGI (UO-31 renal)
1.47 µM: TGI (SF-295 CNS)
2.42 µM: TGI (HOP-92 NSCLC)
4.45 µM: TGI (786-0 renal)
